# Results from ChEMBL document CHEMBL5576130, “Non-Covalent Inhibitors of SARS-CoV-2 Papain-Like Protease (PLpro): In Vitro and In Vivo Antiviral Activity” (J Med Chem, 2024).
# The source made the active and inactive calls. The calls are words filed in the database; no cut-off is given here.
# What was measured:
# SARS-CoV-2 [1] = assay: Antiviral activity against SARS-CoV-2 USA-WA1/2020 infected in African green monkey Vero cells assessed as reduction in viral growth at 2 to 20 uM measured after 2 days by plaque assay; assay type: functional, organism-based; conditions: Severe acute respiratory syndrome coronavirus 2, dose 2-20 µM, time 2.0 day
# SARS-CoV-2 [2] = assay: Antiviral activity against SARS-CoV-2 USA-WA1/2020 infected in African green monkey Vero cells assessed as reduction in viral growth at 10 uM measured after 2 days by plaque assay; assay type: functional, organism-based; conditions: Severe acute respiratory syndrome coronavirus 2, time 2.0 day
# [3] = Plasma protein binding in human; assay type: ADME, cell-free
# SARS-CoV-2 [4] = assay: Antiviral activity against SARS CoV-2; assay type: functional, organism-based; conditions: Severe acute respiratory syndrome coronavirus 2
# SARS-CoV-2 [5] = assay: Antiviral activity against SARS-CoV-2 USA-WA1/2020 infected in African green monkey Vero E6 cells […] for 1 hrs followed by viral infection and measured after 48 hrs; assay type: functional, organism-based; conditions: Severe acute respiratory syndrome coronavirus 2, USA-WA1/2020, Vero C1008
SMILES,Activity (SARS-CoV-2 [1]),further results
Cc1ccc(NC2CNC2)cc1C(=O)N[C@H](C)c1cccc(-c2ccc(CNC(=O)C3CCCC3)s2)c1,inactive,–
"Cc1ccc(NC2CNC2)cc1C(=O)N[C@H](C)c1cccc(-c2ccc(CN[C@H]3CC[C@@H](O)C3)s2)c1 (single isomer, unassigned)",–,Activity (SARS-CoV-2 [2]): inactive
CC(=O)N1CCN(c2ccc(OCC3COC(Cn4ccnc4)(c4ccc(Cl)cc4Cl)O3)cc2)CC1 (stereo not drawn) [KETOCONAZOLE],–,PPB [3]: 99.3%
Cc1ccc(NC2CNC2)cc1C(=O)N[C@H](C)c1cccc(-c2ccc(CN3CCCC3)s2)c1,Active,–
Cc1ccc(OCCN)cc1C(=O)N[C@H](C)c1cccc(-c2ccc(CN3CCCC3)s2)c1,inactive,–
Nc1ccc2cc3ccc(N)cc3nc2c1 [PROFLAVINE],–,EC50 (SARS-CoV-2 [4]): 64 µM
COC(=O)/C=C/C(=O)NNC(=O)CCc1ccccc1C(=O)N[C@H](C)c1cccc2ccccc12,–,EC50 (SARS-CoV-2 [5]): 0.26 µM
Cc1ccc(OC2CNC2)cc1C(=O)N[C@H](C)c1cccc(-c2ccc(CN3CCCC3)s2)c1,Active,–
